What was measured:
[1] = Phase 1 open-label crossover drug-drug interaction study: pharmacokinetics of warfarin with or without ethyl eicosapentaenoate; conditions: for AUC0-inf LSGM (least squares geometric mean) / Cmax LSGM (least squares geometric mean): W = warfarin (25 mg) administered alone; for effect of co-administration with ethyl eicosapentaenoate on Tmax: compared with Tmax when administered alone; for AUC0-inf / AUC0-last / Cmax / Tmax / Kel: plasma
Text: Twenty-five out of the twenty-six enrolled subjects completed the study. One enrolled subject withdrew consent and disconsinuted prematurely. […] On each of Day 8 through Day 35, all subjects received about 4 g of ethyl eicosapentaenoate (oral) as described herein.

[2] = system: international normalized ratio (INR); experiment: Phase 1 drug-drug interaction study: anticoagulation pharmacodynamics of warfarin (INR); format: in vivo, healthy subjects; set-up: AUCINR Mean (SD) / AUCINR Median / AUCINR LSGM: unit not given beside the values
Text: Primary anticoagulation pharmacodynamic endpoints were maximum international normalized ratio (INRmax) and plasma international normalized ratio time curve (AUCINR).

[3] = warfarin 25 mg + ethyl eicosapentaenoate 4 g
[4] = least squares geometric mean, mixed models

Row | SMILES | AUC0-inf LSGM (least squares geometric mean) [1] | Cmax LSGM (least squares geometric mean) [1] [ng/mL] | effect of co-administration with ethyl eicosapentaenoate on Tmax [1] | AUC0-inf ([1]; oral warfarin 25 mg alone) | AUC0-last ([1]; oral warfarin 25 mg alone) | Cmax ([1]; oral warfarin 25 mg alone) | Tmax ([1]; oral warfarin 25 mg alone) | AUC0-inf [1, 3] | AUC0-last [1, 3] | Cmax [1, 3] | Kel [1, 3] | Tmax [1, 3] | also measured
1 | CC(=O)C[C@H](c1ccccc1)c1c(O)c2ccccc2oc1=O [R-Warfarin, R-warfarin] | 80,486 ng · h/mL | 1659.6 | did not significantly affect | 82,620 (19,725) ng · h/mL | 77,539 (17,374) ng · h/mL | 1766 (673) ng/mL | 1.0 (0.5, 9.0) h | 82,460 (22,798) ng · h/mL | 77,117 (19,505) ng · h/mL | 1865 (592) ng/mL | 0.016 (0.005) 1/h | 1.0 (0.5, 1.5) h | –
2 | CC(=O)C[C@@H](c1ccccc1)c1c(O)c2ccccc2oc1=O [S-Warfarin, S-warfarin] | 58,344 ng · h/mL | 1715.9 | did not significantly affect | 60,216 (15,009) ng · h/mL | 59,253 (15,429) ng · h/mL | 1836 (729) ng/mL | 1.0 (0.5, 9.0) h | 60,253 (16,204) ng · h/mL | 59,134 (16,451) ng · h/mL | 1973 (616) ng/mL | 0.020 (0.005) 1/h | 1.0 (0.5, 1.5) h | Kel ([1]; oral warfarin 25 mg alone): 0.020 (0.005) 1/h
3 | CC(=O)CC(c1ccccc1)c1c(O)c2ccccc2oc1=O (stereo not drawn) [Warfarin, warfarin] | – | – | – | – | – | – | – | – | – | – | – | – | AUCINR, concomitant vs warfarin alone ([2]; in vivo): similar; INRmax, concomitant vs warfarin alone ([2]; in vivo): similar; AUCINR LSGM [2, 4]: 216.2; INRmax LSGM [2, 4]: 1.80; Median time to INRmax (TINRmax), co-administered vs warfarin alone ([2]; p=0.026): significantly lower; TINRmax Median ([2]; time to INRmax, warfarin 25 mg, EPA 4 g): 48.0 h; AUCINR Mean (SD) ([2]; warfarin 25 mg, EPA 4 g): 217.8 (27.7); AUCINR Median ([2]; warfarin 25 mg, EPA 4 g): 213.4; INRmax Mean (SD) ([2]; warfarin 25 mg, EPA 4 g): 1.86 (0.48); INRmax Median ([2]; warfarin 25 mg, EPA 4 g): 1.74
4 | CC/C=C\C/C=C\C/C=C\C/C=C\C/C=C\CCCC(=O)OCC [ethyl eicosapentaenoate, all-cis eicosa-5,8,11,14,17-pentaenoic acid ethyl ester] | – | – | – | – | – | – | – | – | – | – | – | – | anticoagulation pharmacodynamic effects compared to warfarin alone ([2]; in vivo): did not have an effect
